Measurements as given in patent US20080318943A1, “Compounds and Uses Thereof - 848” (ASTRAZENECA AB, priority 2007, published 2008).

Legend:
[1] = molecular target: T1, GABAA2 receptors (α2, β3, γ2 receptor subunits transfected into Sf9 cells) (Homo sapiens, UniProt P18507+P47869); experiment: GABAA2 Binding Method ([3H]-Flunitrazepam displacement); details: [3H]-Flunitrazepam ~2 nM, α2β3γ2 Sf9 membranes, 1 hr at 4° C.
T1 construct: host or cells: Sf9 cells (membranes)
Method in brief: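 Displacement of [3H]-flunitrazepam (~2 nM in assay) from recombinant human α2β3γ2 receptors in Sf9 membranes; 1 h incubation at 4 °C, harvest by filtration. Values reported as percent of control, IC50 and Ki.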

[2] = molecular target: T2, GABAA receptor α1β2γ2 (Homo sapiens, UniProt P14867+P18507); experiment: Two-electrode voltage-clamp potentiation of GABA EC10 current in Xenopus oocytes, GABAA1; type: cell-based; details: percentage potentiation of GABA EC10 current divided by that of diazepam
T2 construct: expressed in transfected cells; host or cells: Xenopus laevis oocytes injected with cRNA
T2 sequence (P14867 28-456): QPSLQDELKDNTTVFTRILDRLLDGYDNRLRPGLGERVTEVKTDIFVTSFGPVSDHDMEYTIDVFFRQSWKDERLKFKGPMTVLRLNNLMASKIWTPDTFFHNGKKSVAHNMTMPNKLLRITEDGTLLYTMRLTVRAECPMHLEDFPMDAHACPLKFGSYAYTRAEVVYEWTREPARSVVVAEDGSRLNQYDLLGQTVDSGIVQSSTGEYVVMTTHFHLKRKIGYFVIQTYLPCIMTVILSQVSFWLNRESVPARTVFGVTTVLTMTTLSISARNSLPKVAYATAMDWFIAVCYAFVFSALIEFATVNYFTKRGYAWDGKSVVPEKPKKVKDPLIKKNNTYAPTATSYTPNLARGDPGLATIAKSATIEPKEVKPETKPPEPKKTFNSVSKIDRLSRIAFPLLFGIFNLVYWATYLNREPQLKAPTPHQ
T2 sequence (P47870 25-512 partner limits assumed): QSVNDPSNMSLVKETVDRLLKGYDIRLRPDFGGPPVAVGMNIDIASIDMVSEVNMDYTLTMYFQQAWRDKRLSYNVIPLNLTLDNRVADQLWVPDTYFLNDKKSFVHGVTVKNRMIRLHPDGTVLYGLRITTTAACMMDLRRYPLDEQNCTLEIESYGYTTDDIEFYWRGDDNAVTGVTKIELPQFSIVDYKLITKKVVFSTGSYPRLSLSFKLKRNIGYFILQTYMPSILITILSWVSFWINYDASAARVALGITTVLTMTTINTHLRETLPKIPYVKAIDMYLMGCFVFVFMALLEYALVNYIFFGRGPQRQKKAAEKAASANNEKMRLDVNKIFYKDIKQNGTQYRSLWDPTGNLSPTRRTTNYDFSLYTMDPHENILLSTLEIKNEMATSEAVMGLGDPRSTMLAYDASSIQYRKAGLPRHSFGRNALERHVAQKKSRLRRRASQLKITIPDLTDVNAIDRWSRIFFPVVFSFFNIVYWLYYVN
T2 sequence (P18507 40-475): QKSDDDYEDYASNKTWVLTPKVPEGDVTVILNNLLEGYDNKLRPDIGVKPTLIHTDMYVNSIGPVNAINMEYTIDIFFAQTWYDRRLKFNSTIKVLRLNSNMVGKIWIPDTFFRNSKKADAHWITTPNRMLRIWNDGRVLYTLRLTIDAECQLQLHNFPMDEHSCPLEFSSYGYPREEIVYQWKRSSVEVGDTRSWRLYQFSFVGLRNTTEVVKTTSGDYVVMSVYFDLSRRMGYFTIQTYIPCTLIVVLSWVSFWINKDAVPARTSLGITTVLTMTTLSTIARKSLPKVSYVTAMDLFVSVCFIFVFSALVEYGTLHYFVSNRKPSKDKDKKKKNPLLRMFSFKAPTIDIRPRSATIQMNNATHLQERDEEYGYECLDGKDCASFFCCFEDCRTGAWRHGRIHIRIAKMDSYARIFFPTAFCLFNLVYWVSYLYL
Method in brief: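 Human GABAA receptors expressed in Xenopus oocytes by cRNA injection (α:β:γ molar ratio ~1:1:10 for α1β2γ2, 1:1:1 for α2β3γ2), recorded 2-10 days later by two-electrode voltage clamp at −60 mV in ND-96, pH 7.5. Modulator preapplied 30 s before GABA at per-oocyte EC10. Peak-current percent potentiation over GABA alone, normalised to diazepam.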

[3] = molecular target: T3, GABAA receptor α2β3γ2 (Homo sapiens, UniProt P18507+P47869); experiment: Two-electrode voltage-clamp potentiation of GABA EC10 current in Xenopus oocytes, GABAA2; type: cell-based; details: percentage potentiation of GABA EC10 current divided by that of diazepam
T3 construct: expressed in transfected cells; host or cells: Xenopus laevis oocytes injected with cRNA
T3 sequence (P47869 29-451): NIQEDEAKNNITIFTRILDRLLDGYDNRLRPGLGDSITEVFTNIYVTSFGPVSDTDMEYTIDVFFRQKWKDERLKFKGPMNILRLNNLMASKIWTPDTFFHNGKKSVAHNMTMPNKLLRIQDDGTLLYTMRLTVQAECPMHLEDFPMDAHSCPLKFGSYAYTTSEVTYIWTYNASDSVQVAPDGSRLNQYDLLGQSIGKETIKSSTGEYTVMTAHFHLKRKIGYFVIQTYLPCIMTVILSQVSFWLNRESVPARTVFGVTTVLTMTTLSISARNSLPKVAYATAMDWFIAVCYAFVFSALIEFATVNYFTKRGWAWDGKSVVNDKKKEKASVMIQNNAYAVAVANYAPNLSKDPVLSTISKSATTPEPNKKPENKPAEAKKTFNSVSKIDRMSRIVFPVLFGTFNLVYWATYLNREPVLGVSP
T3 sequence (P28472 26-473 partner): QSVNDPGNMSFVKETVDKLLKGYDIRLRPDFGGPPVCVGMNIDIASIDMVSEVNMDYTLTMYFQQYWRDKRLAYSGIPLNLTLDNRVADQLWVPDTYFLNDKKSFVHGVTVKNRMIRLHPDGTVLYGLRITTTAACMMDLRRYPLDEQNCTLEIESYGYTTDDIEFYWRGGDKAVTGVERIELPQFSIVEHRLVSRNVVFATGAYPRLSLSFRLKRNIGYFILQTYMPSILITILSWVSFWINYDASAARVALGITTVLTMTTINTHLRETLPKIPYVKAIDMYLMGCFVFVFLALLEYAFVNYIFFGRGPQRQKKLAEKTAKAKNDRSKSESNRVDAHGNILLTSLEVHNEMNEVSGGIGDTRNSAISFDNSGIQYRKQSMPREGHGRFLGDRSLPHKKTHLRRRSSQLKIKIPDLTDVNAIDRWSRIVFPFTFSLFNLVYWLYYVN
T3 sequence (P18507 40-475): as the sequence (P18507 40-475) above
Description: GABAA receptors were heterologously expressed in Xenopus oocytes by injecting cRNA corresponding to human α1, α2, α3, α5, β2, P3 and γ2 subunits of the GABAA receptor genes. The specific subunit combinations (subtypes) were as follows: α1β2γ2, α2β3γ2, α3β3γ2, and α5β3γ2. The EC10 of GABA is approximated for each cell. Stability of GABA-mediated (EC10) current is established. Modulatory effect of test compound is determined and compared across subtypes. […] Thus, the assay can characterize modulatory effects and determine subtype selectivity of test compounds on major subtypes of GABAA receptors.
Xenopus laevis frogs (Xenopus I, Kalamazoo, Mich.) were anesthetized using 0.15% tricaine. Surgically removed ovarian lobes were teased out in OR2 solution (82 NaCl, 2.5 KCl, 5 HEPES, 1.5 NaH2PO4, 1 MgCl2, 0.1 EDTA, in mM, pH 7.4). The oocytes were defolliculated by incubation in 25 mL OR2 containing 0.2% collagenase 1A (SIGMA) two times for about 60 minutes on a platform shaker and stored in Leibovitz's L-15 medium. Oocytes were injected the following day in 0.5× Leibovitz's L-15 medium containing […] gentamycin, 10 units/ml penicillin, and […] streptomycin.
Capped cRNAs from the linearized vectors containing human α1, β2 and γ2 subunits of the GABAA receptor genes were mixed in ratio of […]. Oocytes were injected with 25-50 nL of mixed RNA with an appx molar ratio for α1, β2, and γ2 as 1:1:10. Oocyte recordings were done 2-10 days after injection. The same methods apply to subtypes derived from α2β3γ2, α3β3γ2, and α5β3γ2, except for 1:1:1 ratio was used for α, β, and γ subunits.
All measurements were done in a medium containing ND-96 (96 NaCl, 2 KCl, 1.8 CaCl2.2H2O, 1 MgCl2.6H2O, 5 HEPES, in mM, pH 7.5). Two-electrode voltage-clamp recording was carried out using OpusXpress amplifier (Axon Instruments, Foster City, Calif.), which allows simultaneous recording from 8 oocytes. Oocytes were impaled with two electrodes of 1-2 MΩ tip resistance when filled with 3M KCl. Recordings were begun when membrane potential became stable at potentials negative to −50-−60 mV. Membrane potential was held at −60 mV. […] The concentration of GABA corresponded to the EC10 value calculated for each oocyte. The modulator pulses started 30 s before the GABA pulse so as to allow preincubation with the modulator. A set of 3 pulses with just GABA without modulator was given prior to the modulator-containing pulses to define the baseline GABA response. Two oocytes per each experiment were dedicated to observe the effect of diazepam on GABA response to ensure the presence of γ2 subunit in the GABAA pentameric complex, which imparts diazepam sensitivity to the complex.
Current amplitude (i) was measured from baseline to peak using Clampfit (Axon Inst., Foster City, Calif.). Potentiation was calculated as percent change from the baseline GABA current flux 100×(imod/icontrol)−1) where imod=current mediated by modulator+GABA and icontrol=current mediated by GABA alone. […] Similarly, a value of −50% potentiation means the presence of modulator caused a 50% decrease in the control current. Various other data shown here were fitted and plotted using GraphPad Prism (GraphPad Software, Inc. San Diego, Calif.). The percentage potentiation was converted to relative potentiation by dividing it with percentage potentiation value obtained from the same assay with diazepam as a control.

T1 sequence (P47869 29-451): as the sequence (P47869 29-451) above
T1 sequence (P28472 26-473 partner): as the sequence (P28472 26-473 partner) above
T1 sequence (P18507 40-475): as the sequence (P18507 40-475) above

COc1cccc(Cl)c1-c1c(F)ccc2c(N)c3c(nc12)CN(C1CC1)C3=O [9-amino-5-(2-chloro-6-methoxyphenyl)-2-cyclopropyl-6-fluoro-2,3-dihydro-1H-pyrrolo[3,4-b]quinolin-1-one]
Ki [1]: 4.85 nM
Relative Potentiation for GABAA1 [2]: −0.15
Relative Potentiation for GABAA2 [3]: 0.013

CCN1Cc2nc3c(-c4cc(Cl)ccc4OC)c(F)ccc3c(N)c2C1=O [9-Amino-5-(5-chloro-2-methoxyphenyl)-2-ethyl-6-fluoro-2,3-dihydropyrrolo[3,4-b]quinolin-1-one]
Ki [1]: 2.22 nM
Relative Potentiation for GABAA1 [2]: 0.033
Relative Potentiation for GABAA2 [3]: 0.27

Nc1c2c(nc3c(-c4ccc(F)cc4F)cccc13)CN(C1CC1)C2=O [9-Amino-2-cyclopropyl-5-(2,4-difluorophenyl)-2,3-dihydropyrrolo[3,4-b]quinolin-1-one]
Ki [1]: 20 nM
Relative Potentiation for GABAA1 [2]: 0.018
Relative Potentiation for GABAA2 [3]: 0.14

COc1ccc(F)cc1-c1c(F)ccc2c(N)c3c(nc12)CN(C1CCC1)C3=O [9-Amino-2-cyclobutyl-6-fluoro-5-(5-fluoro-2-methoxyphenyl)-2,3-dihydropyrrolo[3,4-b]quinolin-1-one]
Ki [1]: 0.333 nM
Relative Potentiation for GABAA1 [2]: 0.11
Relative Potentiation for GABAA2 [3]: 0.26

COc1ccc(-c2cccc3c(N)c4c(nc23)CN(C2CCCC2)C4=O)cn1 [Example 147, 9-Amino-2-cyclopentyl-5-(6-methoxypyridin-3-yl)-2,3-dihydropyrrolo[3,4-b]quinolin-1-one]
Ki [1]: 31.6 nM
Relative Potentiation for GABAA1 [2]: 0.016
Relative Potentiation for GABAA2 [3]: 0.23

COc1ccc(CN2Cc3nc4c(-c5cccnc5F)cccc4c(N)c3C2=O)cc1 [9-amino-5-(2-fluoropyridin-3-yl)-2-(4-methoxybenzyl)-2,3-dihydro-1H-pyrrolo[3,4-b]quinolin-1-one]
Ki [1]: 6.82 nM
Relative Potentiation for GABAA1 [2]: 0.18
Relative Potentiation for GABAA2 [3]: 0.32

COc1ccc(-c2cccc3c(N)c4c(nc23)CN(C2CCC2)C4=O)c(OC)n1 [Example 64, 9-Amino-2-cyclobutyl-5-(2,6-dimethoxypyridin-3-yl)-2,3-dihydropyrrolo[3,4-b]quinolin-1-one]
Ki [1]: 3.81 nM
Relative Potentiation for GABAA1 [2]: 0.06
Relative Potentiation for GABAA2 [3]: 0.31

CCCN1Cc2nc3c(-c4cc(OC)ccc4F)cccc3c(N)c2C1=O [9-amino-5-(2-fluoro-5-methoxyphenyl)-2-propyl-2,3-dihydro-1H-pyrrolo[3,4-b]quinolin-1-one]
Ki [1]: 12.5 nM
Relative Potentiation for GABAA1 [2]: 0.39
Relative Potentiation for GABAA2 [3]: 0.39

Cc1nn(C)cc1-c1cccc2c(N)c3c(nc12)CN(C1CCC1)C3=O [9-Amino-2-cyclobutyl-5-(1,3-dimethyl-1H-pyrazol-4-yl)-2,3-dihydropyrrolo[3,4-b]quinolin-1-one]
Ki [1]: 3.91 nM
Relative Potentiation for GABAA1 [2]: 0.017
Relative Potentiation for GABAA2 [3]: 0.43

COc1ncc(-c2cccc3c(N)c4c(nc23)CN(C2CC2)C4=O)cc1C [9-amino-2-cyclopropyl-5-(6-methoxy-5-methylpyridin-3-yl)-2,3-dihydro-1H-pyrrolo[3,4-b]quinolin-1-one]
Ki [1]: 55.3 nM
Relative Potentiation for GABAA1 [2]: 0.088
Relative Potentiation for GABAA2 [3]: 0.08

CCN1Cc2nc3c(-c4ccc(OC)cc4F)cccc3c(N)c2C1=O [9-amino-2-ethyl-5-(2-fluoro-4-methoxyphenyl)-2,3-dihydro-1H-pyrrolo[3,4-b]quinolin-1-one]
Ki [1]: 7.14 nM
Relative Potentiation for GABAA1 [2]: −0.008
Relative Potentiation for GABAA2 [3]: 0.036

Cc1ccc(-c2cccc3c(N)c4c(nc23)CN(C2CC2)C4=O)c(F)n1 [9-Amino-2-cyclopropyl-5-(2-fluoro-6-methylpyridin-3-yl)-2,3-dihydropyrrolo[3,4-b]quinolin-1-one]
Ki [1]: 43.4 nM
Relative Potentiation for GABAA1 [2]: 0
Relative Potentiation for GABAA2 [3]: 0.18

CCN1Cc2nc3c(-c4cccnc4OC)c(F)ccc3c(N)c2C1=O [Example 58, 9-Amino-2-ethyl-6-fluoro-5-(2-methoxypyridin-3-yl)-2,3-dihydropyrrolo[3,4-b]quinolin-1-one]
Ki [1]: 4.08 nM
Relative Potentiation for GABAA1 [2]: −0.055
Relative Potentiation for GABAA2 [3]: 0.28

COc1cccc(Cl)c1-c1cccc2c(N)c3c(nc12)CN(C1CC1)C3=O [9-amino-5-(2-chloro-6-methoxyphenyl)-2-cyclopropyl-2,3-dihydro-1H-pyrrolo[3,4-b]quinolin-1-one]
Ki [1]: 14.9 nM
Relative Potentiation for GABAA1 [2]: −0.1
Relative Potentiation for GABAA2 [3]: 0.052

Cc1ccc(-c2cccc3c(N)c4c(nc23)CN(C2CCC2)C4=O)c(F)n1 [9-Amino-2-cyclobutyl-5-(2-fluoro-6-methylpyridin-3-yl)-2,3-dihydropyrrolo[3,4-b]quinolin-1-one]
Ki [1]: 4.26 nM
Relative Potentiation for GABAA1 [2]: −0.017
Relative Potentiation for GABAA2 [3]: 0.3

COc1cc(-c2cccc3c(N)c4c(nc23)CN(C2CCC2)C4=O)c(OC)nn1 [Example 84, 9-Amino-2-cyclobutyl-5-(3,6-dimethoxypyradazin-4-yl)-2,3-dihydropyrrolo[3,4-b]quinolin-1-one]
Ki [1]: 0.74 nM
Relative Potentiation for GABAA1 [2]: 0.088
Relative Potentiation for GABAA2 [3]: 0.42

CCCN1Cc2nc3c(-c4cccnc4F)cccc3c(N)c2C1=O [Example 13, 9-Amino-5-(2-fluoropyridin-3-yl)-2-propyl-2,3-dihydropyrrolo[3,4-b]quinolin-1-one]
Ki [1]: 26.7 nM
Relative Potentiation for GABAA1 [2]: 0.21
Relative Potentiation for GABAA2 [3]: 0.37

COc1ncc(-c2cccc3c(N)c4c(nc23)CN(C2CCC2)C4=O)cc1C [9-Amino-2-cyclobutyl-5-(6-methoxy-5-methylpyridin-3-yl)-2,3-dihydropyrrolo[3,4-b]quinolin-1-one]
Ki [1]: 4.61 nM
Relative Potentiation for GABAA1 [2]: 0.029
Relative Potentiation for GABAA2 [3]: 0.16

Nc1c2c(nc3c(-c4cccc(F)c4F)cccc13)CN(C1CC1)C2=O [9-Amino-2-cyclopropyl-5-(2,3-difluorophenyl)-2,3-dihydropyrrolo[3,4-b]quinolin-1-one]
Ki [1]: 17 nM
Relative Potentiation for GABAA1 [2]: 0.033
Relative Potentiation for GABAA2 [3]: 0.16

CCN1Cc2nc3c(-c4cccc(F)c4OC)cccc3c(N)c2C1=O [9-amino-2-ethyl-5-(3-fluoro-2-methoxyphenyl)-2,3-dihydro-1H-pyrrolo[3,4-b]quinolin-1-one]
Ki [1]: 22.6 nM
Relative Potentiation for GABAA1 [2]: 0.052
Relative Potentiation for GABAA2 [3]: 0.068

N#Cc1ccc(-c2cccc3c(N)c4c(nc23)CN(C2CCC2)C4=O)cn1 [5-(9-Amino-2-cyclobutyl-1-oxo-2,3-dihydro-1H-pyrrolo[3,4-b]quinolin-5-yl)-pyridine-2-carbonitrile]
Ki [1]: 15.6 nM
Relative Potentiation for GABAA1 [2]: −0.038
Relative Potentiation for GABAA2 [3]: 0.17

COc1cc(F)c(-c2cccc3c(N)c4c(nc23)CN(C2CCC2)C4=O)c(F)c1 [9-Amino-2-cyclobutyl-5-(2,6-difluoro-4-methoxyphenyl)-2,3-dihydropyrrolo[3,4-b]quinolin-1-one]
Ki [1]: 1.43 nM
Relative Potentiation for GABAA1 [2]: −0.023
Relative Potentiation for GABAA2 [3]: 0.13
